Measured values reported in patent US5747239A, “Synthetic peptides specific for the detection of antibodies to HCV, diagnosis of HCV infection and preventions thereof as vaccines” (United Biomedical, Inc., priority 1994, dated 1998).

Assays:
Type in all cases: binding, human
[1] = test system: antibodies to HCV; assay: Envelope/NS-1 peptide ELISA, samples nonreactive on HCV core (VIIIE) and NS-4 (IIH) peptides
Procedure: In addition to screening on Panel III samples, the envelope/NS-1 peptides were also tested against samples from plasmapheresis donors who had elevated ALT levels but were non-reactive on the HCV from the core (e.g. peptide VIIIE) and NS-4 (e.g. peptide IIH) regions screening EIA. Six of these samples, which may represent early seroconversion samples, were reactive on one or more envelope/NS-1 peptide (Table 8d). The absorbance values on these HCV EIA nonreactive samples are lower than the values found for Panel III samples. In the case of Pep7 and Pep10, their shorter segments, 225B and 246C, respectively, gave greater immunoreactivity, in contrast to the performance on Panel III.

[2] = test system: antibodies to HCV; assay: Envelope/NS-1 peptide ELISA, anti-HCV positive plasmapheresis donors with elevated ALT (Panel III); conditions: for % Relative Immunoreactivity: envelope/NS-1 peptides, Panel III (17 samples), peptide 254B as a standard
Procedure: To select a panel of samples with reactivity to peptides from the envelope/NS-1 region, 97 such samples from anti-HCV positive plasmapheresis donors with elevated ALT levels were tested with peptide 254B. […] 17 samples with the greatest reactivity with peptide 254B were chosen to form a third panel (Panel III) to screen for the immunoreactivity of the other 20 peptides from the envelope/NS-1 region. The individual absorbance values of each of the 17 samples on the four peptides with the greatest reactivity, i.e. 255C (pep7), 254B (pep8), 247B (pep9), and 246D (pep10), are listed in Table 8b.

[3] = test system: antibodies to HCV; assay: EIA of pep3 after different extraction conditions following HF cleavage; conditions: for % Decrease: Pep3' versus Pep3
Excerpt: Peptide extraction conditions after HF cleavage were altered to test for their effect on peptide immunopotency after HF cleavage. Pep3 (or 279A) was extracted with acetic acid at pH 2, whereas pep3' was extracted with ammonium bicarbonate at pH 8.

[4] = test system: antibodies to HCV; assay: Peptide ELISA for relative immunoreactivity, 8 member HCV serum panel (Panel I); parameters: relative immunoreactivity value: concentration or dose not given beside the values; conditions: for % IP: NS-5 peptides (Table 12), pep11 as a standard
Procedure: As an example to illustrate how relative (%) immunoreactivity for HCV synthetic peptides is measured, wells of 96-well plates are coated for 1 hour at 37° C., with each of the following peptides: IIH, V, VIIIE and pep11 at 5 ug/mL at 100 uL per well in 10 mM NaHCO3 buffer, pH 9.5. The peptide coated wells were then incubated with 250 uL of 3% by weight of gelatin in PBS in 37° C. for 1 hour to block non-specificprotein binding sites, followed by three washes with PBS containing 0.05% by volume of TWEEN 20 and then dried. The test specimens containing a panel of eight well-characterized HCV antibody positive patient sera were diluted with PBS containing 20% by volume normal goat serum, 1% by weight gelatin and 0.05% by volume TWEEN 20 at dilutions of 1:20 volume to volume, respectively. 200 uL of the diluted specimens were added to each of the wells and allowed to react for 15 minutes at 37° C.
The wells were then washed six times with 0.05% by volume TWEEN 20 in PBS in order to remove unbound antibodies. Horseradish peroxidase conjugated goat anti-human IgG was used as a second antibody tracer to bind with the HCV antibody-peptide antigen complex formed in positive wells. 100 uL of peroxidase labeled goat anti-human IgG at a dilution of 1:1800 in 1% by volume normal goat serum, 0.05% by volume TWEEN 20 in PBS was added to each well and incubated at 37° C. for another 15 minutes.
The wells were washed six times with 0.05% by volume TWEEN 20 PBS to remove unbound antibody and reacted with 100 uL of the substrate mixture containing 0.04% by weight orthophenylenediamine (OPD) and 0.12% by volume hydrogen peroxide in sodium citrate buffer, pH 5.0.
This substrate mixture was used to detect the peroxidase label by forming a colored product. Reactions were stopped by the addition of 100 uL of 1.0M H2 SO4 and the A492 mm measured. Results of relative immunoreactivity for each of the peptides obtained from this study are shown in Table A using peptide II H as the reference.

[5] = test system: antibodies to HCV; assay: NS-5 peptide ELISA, group of 5 HCV positive sera; conditions: for % Relative Immunoreactivity: NS-5 peptides, 5 HCV positive sera, Pep5 = 100
Procedure: Wells of 96-well plates were coated for 1 hour at 37° C. with each of the three peptides derived from the NS-5 region of HCV (designated as pep4, pep5 and pep6).

[6] = test system: antibodies to HCV; assay: EIA of NS-3 peptides before and after pH adjustment
Procedure: Peptides dissolved at 1 mg/mL in H2 O, pH 4, were titrated to pH 11 by addition of diluted NaOH. After 5 min at pH 11, the pH of the peptide solution was brought down to 7.0 using diluted HCl. Immunoreactivity of the peptides thus treated was compared with reactivity prior to pH adjustment (Table 4E). Two-to three-fold increases in A492 nm were seen. Some previously non-reactive serum samples were able to react with pH adjusted peptides. For instance, serum sample 1, which is non-reactive to 261C, has an absorbance of 1401 mA when tested with the corresponding pH adjusted peptide.

[7] = test system: antibodies to HCV; assay: Peptide ELISA for relative immunoreactivity, 8 member HCV serum panel (Panel I); conditions: NS-3 peptides (Tables 4B-4D), relative to pep3 (279A)
[8] = test system: antibodies to peptide VIIIE; assay: Presence of antibodies to peptide VIIIE in sera
[9] = sample 1 (first line, number not given)
[10] = serum sample 1, Ctrl (prior to pH adjustment)
[11] = serum sample 1, pH adj (pH 11 for 5 min, then 7.0)

Molecule: INSTALNCNESLNTGWLAGLIYQHKFNSSGCPERLASC [246C]
- Absorbance [1, 9]: 0.240
- Absorbance ([1]; sample 2): 0.015
- Absorbance ([1]; sample 3): 0.023
- Absorbance ([1]; sample 4): 0.046
- Absorbance ([1]; sample 5): 0.009
- % Relative Immunoreactivity [2]: 97.6%

Molecule: VRNSTGLYHVTNDCPNSSIVYEAHDAILHTPGCPCVREGNVSRC [255B]
- Absorbance ([1]; sample 4): 0.021
- Absorbance ([1]; sample 6): 0.012
- % Relative Immunoreactivity [2]: 18.7%

Molecule: CLTVPASAYQVRNSTGLYHVTNDCPNSSIVYEAHDAILHTPGCVPCVREGNVSRC [255C]
- Absorbance [1, 9]: 0.098
- Absorbance ([1]; sample 2): 0.346
- Absorbance ([1]; sample 3): 0.300
- Absorbance ([1]; sample 4): 0.021
- Absorbance ([1]; sample 5): 0.231
- Absorbance ([1]; sample 6): 0.017
- Absorbance ([2]; Panel III sample 2): 0.017
- Absorbance ([2]; Panel III sample 3): 0.235
- Absorbance ([2]; Panel III sample 4): 0.066
- Absorbance ([2]; Panel III sample 5): 0.711
- Absorbance ([2]; Panel III sample 6): 0.106
- Absorbance ([2]; Panel III sample 7): 0.784
- Absorbance ([2]; Panel III sample 8): 0.037
- Absorbance ([2]; Panel III sample 9): 0.019
- Absorbance ([2]; Panel III sample 10): 0.313
- Absorbance ([2]; Panel III sample 11): 0.035
- Absorbance ([2]; Panel III sample 14): 0.047
- Absorbance ([2]; Panel III sample 15): 0.012
- Absorbance ([2]; Panel III sample 16): 0.064
- Absorbance ([2]; Panel III sample 17): 0.077
- % Relative Immunoreactivity [2]: 51.4%

Molecule: Pep3': pep3 (279A) sequence extracted with ammonium bicarbonate at pH 8 after HF cleavage (GCSGGAYDIIICDECHSTDATSILGIGTVLDQAETAG)
- A492 nm (mA) by EIA ([3]; NRC: Negative Control): 1 mA
- % Decrease ([3]; SRC): 77.6%
- % Decrease ([3]; WRC): 89.6%
- % Decrease ([3]; sample #1): 78.8%
- % Decrease ([3]; sample #2): 90.0%
- % Decrease ([3]; sample #3): 91.5%
- % Decrease ([3]; sample #4): 99.3%
- % Decrease ([3]; sample #5): 88.0%
- share of the panel reactive ([4]; Panel I): half of the panel is reactive
- relative immunoreactivity value ([4]; Panel I, compared with peptide VIIIE): 23.9%
- absorbances of some additional reactive samples ([4]; additional reactive samples): > 2000 mA

Molecule: WHINSTALNCNESLNTGWLAGLIYQHKFNSSGCPERLASC [246D]
- Absorbance [1, 9]: 0.068
- Absorbance ([1]; sample 2): 0.028
- Absorbance ([1]; sample 3): 0.029
- Absorbance ([1]; sample 4): 0.049
- Absorbance ([1]; sample 5): 0.009
- Absorbance ([1]; sample 6): 0.102
- Absorbance ([2]; Panel III sample 1): 1.085
- Absorbance ([2]; Panel III sample 2): 0.068
- Absorbance ([2]; Panel III sample 3): 0.090
- Absorbance ([2]; Panel III sample 5): 0.077
- Absorbance ([2]; Panel III sample 9): 0.334
- Absorbance ([2]; Panel III sample 10): 1.488
- Absorbance ([2]; Panel III sample 11): 0.045
- Absorbance ([2]; Panel III sample 12): 0.408
- Absorbance ([2]; Panel III sample 13): 0.451
- Absorbance ([2]; Panel III sample 14): 0.037
- Absorbance ([2]; Panel III sample 16): 0.810
- Absorbance ([2]; Panel III sample 17): 0.111
- % Relative Immunoreactivity [2]: 98.6%

Molecule: DPSHITAEAAGRRLARGSPPSVASSSASQLSAPSLKATCTANHDSP [Pep4]
- % Relative Immunoreactivity [5]: 28.6%
- EIA reading per sample ([5]; Sample No. 1): 0.468
- EIA reading per sample ([5]; Sample No. 2): 0.659
- EIA reading per sample ([5]; Sample No. 3): 0.675
- EIA reading per sample ([5]; Sample No. 4): 0.063
- EIA reading per sample ([5]; Sample No. 5): 0.144
- % IP ([4]; Panel I): 17.1%

Molecule: DAELIEANLLWRQEMGGNITRVESENKVVILDSFDPLVAEEDER [Pep5]
- % Relative Immunoreactivity [5]: 100.0%
- EIA reading per sample ([5]; Sample No. 1): 2.942
- EIA reading per sample ([5]; Sample No. 2): 0.370
- EIA reading per sample ([5]; Sample No. 3): 0.616
- EIA reading per sample ([5]; Sample No. 4): 1.316
- EIA reading per sample ([5]; Sample No. 5): 1.783
- % IP ([4]; Panel I): 47.6%

Molecule: SVTVPHPNIEEVALSTTGEIPFYGKAIPLEVIKGGRHLIFCHSKKKCDEL [261C]
- relative immunopotency ([6]; after pH adjustment, compared with the standard pep3 (279A)): 68.5%
- A492 nm (mA) by EIA [6, 10]: 6 mA
- A492 nm (mA) by EIA [6, 11]: 1401 mA
- A492 nm (mA) by EIA ([6]; serum sample 2, Ctrl): 5 mA
- A492 nm (mA) by EIA ([6]; serum sample 2, pH adj): 499 mA
- A492 nm (mA) by EIA ([6]; serum sample 3, Ctrl): 24 mA
- A492 nm (mA) by EIA ([6]; serum sample 3, pH adj): 175 mA
- A492 nm (mA) by EIA ([6]; serum sample 4, Ctrl): 27 mA
- A492 nm (mA) by EIA ([6]; serum sample 4, pH adj): 351 mA
- % Relative Immunoreactivity [7]: 3.2%

B1: STIPKPQRKTKRNTNRRPQDVKFPGGGQIVGGVYLLPRRGPRLGVRATRKTSERSQPRGRR (peptide)
peptide: STIPKPQRKTKRNTNRRPQDVKFPGGGQIVGGVYLLPRRGPRLGVRATRKTSERSQPRGRR
- antibodies to the peptide present in ([8]; HBsAg positive individuals): 15-20%
- antibodies to the peptide present in ([8]; normal controls): 1-2%
- A492 nm ([4]; Panel I serum No. 1, peptide coated at 5 ug/mL, serum 1:20): 2.745
- A492 nm ([4]; Panel I serum No. 2): 2.208
- A492 nm ([4]; Panel I serum No. 3): 2.468
- A492 nm ([4]; Panel I serum No. 4): 3.032
- A492 nm ([4]; Panel I serum No. 5): 0.054
- A492 nm ([4]; Panel I serum No. 6): 2.108
- A492 nm ([4]; Panel I serum No. 7): 0.730
- A492 nm ([4]; Panel I serum No. 8): 3.006
- samples of the HCV serum panel that reacted ([4]; Panel I, 8 samples): 7 out of 8
- % Relative Immunoreactivity ([4]; Panel I, peptide IIH as the reference): 98%
- % Relative Immunoreactivity ([4]; capsid peptides, Panel I, relative to VIIIE, coated at 5, 1 and 0.2 μg/mL): 100.0%
- A492 nm Total ([4]; sum over Panel I No. 1 to 8): 16.351

B2: TVLDQAETAGARLVVLATATPPGSVTVPHPNIEEVALSTTGEIPFYGKAIPLEVIKGGRHLIFCHSKKKCDEL (peptide)
chain: TVLDQAETAGARLVVLATATPPGSVTVPHPNIEEVALSTTGEIPFYGKAIPLEVIKGGRHLIFCHSKKKCDEL
- % Relative Immunoreactivity [7]: 15.8%

B3: LVLNPSVAATLGFGAYMSKAHGIDPNIRTGVRTITTGSPITYSTYGKFLADGGCSGGAYDIIICDECHS (peptide)
chain: LVLNPSVAATLGFGAYMSKAHGIDPNIRTGVRTITTGSPITYSTYGKFLADGGCSGGAYDIIICDECHS
- A492 nm (mA) by EIA [6, 10]: 210 mA
- A492 nm (mA) by EIA [6, 11]: 591 mA
- A492 nm (mA) by EIA ([6]; serum sample 2, Ctrl): 37 mA
- A492 nm (mA) by EIA ([6]; serum sample 2, pH adj): 159 mA
- A492 nm (mA) by EIA ([6]; serum sample 3, Ctrl): 0 mA
- A492 nm (mA) by EIA ([6]; serum sample 3, pH adj): 217 mA
- A492 nm (mA) by EIA ([6]; serum sample 4, Ctrl): 124 mA
- A492 nm (mA) by EIA ([6]; serum sample 4, pH adj): 311 mA
- % Relative Immunoreactivity [7]: 11.1%
